The test system of assay [1] is CF human bronchial epithelial (CF HBE) cells. The experiment in a line: Short-circuit current in CF HBE cells. It counts as cell-based. Conditions: no IL-4; UTP 100 μM. On the procedure:
FIG. 5A-B. Airway epithelial chloride secretion. FIG. 5A. Short-circuit current in CF HBE cells. Eact and UTP (100 μM) were added in control (left) and IL-4 (10 ng/ml, 24 h, middle) treated CF HBE cells. (right) Summary of Eact-induced, T16Ainh-A01-sensitive peak current (mean±S.E., n=6-8, * P<0.05). ENaC was inhibited by 10 μM amiloride. FIG. 5B. Eact (10 μM) and UTP (100 μM) induced CaCC Cl^− current measured in primary cultures of non-CF human tracheal gland (HTG) serous cells. (left and gmiddle) TMEM16A, CFTR and ENaC were inhibited by pretreatment with T16Ainh-A01, CFTRinh-172 and amiloride, respectively. Inset: TMEM16A immunoblot in whole cell homogenates of CF HBE and HTG cells. (right) Summary of UTP and Eact-induced peak current in the presence and absence of T16Ainh-A01 (mean±S.E., n=3, * P<0.05).
Tracheal and bronchial tissues were obtained from non-CF and CF patients following lung transplantation or from postmortem examinations performed within 24 h after death. […]
Snapwell inserts containing TMEM16A-expressing FRT, HBE, CF HBE or HTG cells were mounted in Ussing chambers (Physiologic Instruments, San Diego, Calif.). […] Apical membrane current (for FRT cells) and short-circuit current were measured using an EVC4000 Multi-Channel V/I Clamp (World Precision Instruments, Sarasota, Fla.) and recorded using PowerLab/8sp (AD Instruments, Castle Hill, Australia).

Assay [2] has as its system non-CF human tracheal gland (HTG) serous cells. The experiment in a line: Short-circuit current in human tracheal gland (HTG) serous cells. The format is cell-based. The note with it: Eact 10 μM, UTP 100 μM. On the procedure: FIG. 5A-B. Airway epithelial chloride secretion. FIG. 5A. Short-circuit current in CF HBE cells. Eact and UTP (100 μM) were added in control (left) and IL-4 (10 ng/ml, 24 h, middle) treated CF HBE cells. (right) Summary of Eact-induced, T16Ainh-A01-sensitive peak current (mean±S.E., n=6-8, * P<0.05). ENaC was inhibited by 10 μM amiloride. FIG. 5B. Eact (10 μM) and UTP (100 μM) induced CaCC Cl^− current measured in primary cultures of non-CF human tracheal gland (HTG) serous cells. (left and gmiddle) TMEM16A, CFTR and ENaC were inhibited by pretreatment with T16Ainh-A01, CFTRinh-172 and amiloride, respectively. Inset: TMEM16A immunoblot in whole cell homogenates of CF HBE and HTG cells. (right) Summary of UTP and Eact-induced peak current in the presence and absence of T16Ainh-A01 (mean±S.E., n=3, * P<0.05). […]
Snapwell inserts containing TMEM16A-expressing FRT, HBE, CF HBE or HTG cells were mounted in Ussing chambers (Physiologic Instruments, San Diego, Calif.). […] Apical membrane current (for FRT cells) and short-circuit current were measured using an EVC4000 Multi-Channel V/I Clamp (World Precision Instruments, Sarasota, Fla.) and recorded using PowerLab/8sp (AD Instruments, Castle Hill, Australia). […]

Assay [3] has as its system human bronchi submucosal glands. The experiment in a line: Airway submucosal gland fluid secretion in human bronchi. The note with it: serosal application; 300 nM carbachol, 20 μM Eact. On the procedure:
FIG. 6A-C. Airway submucosal gland fluid secretion in human bronchi. FIG. 6A. TMEM16A immunohistochemistry in CF (left) and non-CF (right) human bronchi showing apical membrane expression in serous gland epithelial cells (arrows). Scale bar: 20 μm. FIG. 6B. Mucous (fluid) secretion in human bronchi. (top) Images of mucus bubbles formed under oil in response to basolateral application of 300 nM carbachol (CCh) and 20 μM Eact. TMEM16A was inhibited by 30 μM T16Ainh-A01. Individual fluid bubbles marked with arrowheads. Scale bar: 0.5 mm. (bottom) CCh and Eact-induced secretion rates. Where indicated, tissues were pre-treated with T16Ainh-A01 (30 μM). Each point is the average of measurements made from 20 glands (mean±S.E. * P<0.05). FIG. 6C. Summary of human gland fluid secretion rates measured at 20 min after addition of 20 μM Eact, and 30 min after application of 300 nM carbachol (CCh) and 10 μM forskolin (20-66 glands from 3 tracheas and 4 bronchus). In CF-bronchi, 6 glands from one donor were stimulated by Eact. […]
Similar staining was found in non-CF and CF human bronchi. Fluid secretion was measured in individual submucosal glands from the increasing size of mucus (fluid) bubbles in which airway fragments were mounted in a 37° C. perfusion chamber and the mucosal solution was covered with oil.

Assay [4] concerns mouse ileal smooth muscle. The experiment in a line: Intestinal smooth muscle contraction, ex vivo mouse ileal segments. The note with it: carbachol 1 μM. On the procedure: FIG. 8A-C. Intestinal smooth muscle contraction. FIG. 8A. Representative traces from mouse ileal segments showing effects of T16Ainh-A01 (10 μM), carbachol (CCh, 1 μM) and Eact (10 μM). FIG. 8B. Effect of CCh (1 μM) and Eact (10 μM) following atropine (1 μM). FIG. 8C. Summary of contraction frequency (left), and resting and maximum tone (right) (mean±S.E., n=4-7, * P<0.05).
Wild type CD1 mice (age 8-10 weeks) were killed by avertin overdose (200 mg/kg). The ileum removed and washed with ice-cold HCO3^−-buffered solution. The ends of the ileal segments were tied with silk thread and connected to a force transducer. Beal segments were equilibrated for 60 min with a resting force of ˜1 mN, with changes of the bathing solution every 15 min. Tension was monitored continuously with a fixed-range precision force transducer (TSD, 125 C; Biopac, Goleta, Calif.) connected to a differential amplifier (DA 100B; Biopac). Data were recorded using MP100, Biopac digital acquisition system and analyzed using Acknowledge 3.5.7 software.
TMEM16A in expressed in the interstitial cells of Cajal, the pacemaker cells that control smooth muscle contraction dynamics in stomach and intestine (Huang et al., supra; Gomez-Pinilla et al. (2009) Am. J. Physiol. Gastrointest. Liver Physiol. 296, G1370-1381). The effect of Eact on mouse ileal smooth muscle contraction was investigated using an ex vivo intestinal preparation. […] Without wishing to be bound by theory, the constitutive TMEM16A activity in this ex vivo preparation could obscure Eact activity. To reveal Eact effects, atropine was first added to inhibit basal contractions. […] FIG. 8C summarizes data on contraction frequency, resting tone and maximal tone.

The values that follow come from US9790218B2, “Small molecule activators of calcium-activated chloride channels and methods of use” (The Regents of the University of California, priority 2011, dated 2017).

`O=c1ccn([C@@H]2O[C@H](COP(=O)(O)OP(=O)(O)OP(=O)(O)O)[C@@H](O)[C@H]2O)c(=O)[nH]1` [UTP, reference compound]: in assay [1], the “Cl^− current in untreated CF bronchial epithelial cells” value is “produced a large Cl^− current”. Besides, the “Cl^− current in HTG serous cells” value in assay [2] was “increased Cl^− current”.
As for `C[N+](C)(C)CCOC(N)=O` [carbachol], in assay [3], the “gland fluid secretion rate” value was “significantly increased secretion”. The contraction frequency result in assay [4] is on record as “without change in contraction frequency”. Besides, in assay [4] (Eact 10 μM, no atropine), the “resting and maximum tone” value is reported as “increased”.
